Reference: patent publication US9375450B2, “Vaginal tissue rejuvenation compositions and methods” (priority 2011, dated 2016)

Columns and labels:
[1] = tested on: rat vaginal Col1a1, Col3a1, Col5a1 mRNA; assay: qRT-PCR of vaginal collagen gene expression after 2 weeks vaginal suppositories; format: in vivo; conditions: OVX rats, vaginal suppositories 2 weeks, mean±SD
Text: Ten to 12-weeks old female ovariectomized (OVX) Sprague-Dawley rats were utilized for the experiments. The animals were acclimatized to the environmental conditions before starting the experiment. The animals were housed individually and were allowed free access to water and rodent food. Two weeks after the ovariectomy rats (n=36) were divided into five groups: control (receiving placebo suppositories, n=8), Zinc (receiving zinc sulfate containing suppositories, n=8), GW (receiving GW501516 containing suppositories, n=8), Zinc with GW (receiving Zinc with GW 501516 containing suppositories, n=8) and Estradiol (receiving estradiol containing suppositories, n=4).
The suppositories were prepared according to the fusion method, using a polypeg suppository base (MEDISCA, N.Y., USA). […] Using a microwave, the suppository base was melted in a small beaker for 3 min and then transferred and kept into a water bath at a temperature of 55° C. The proper amount of above reagent was added to the liquefied base and meticulously crushed with a smooth rounded-end glass rod for about 20 min to make the solution to be even and clear. A pipette tip was used to suck some amount of solution and push it into a plastic tube with a diameter of 3.5 mm, and the tube was immediately left on the flat surface of an ice bucket. The suppository turned to white in color when it was solid. The moulded suppository was then pushed out of the tube using a round rod. The moulded suppository was cut using a razor blade to a length of 1.2 cm each, which was calibrated to equal a volume of 50±5 μl per each suppository. After 30 min of cooling at room temperature, the suppositories were stored at 4° C. in a closed chamber until use. They were left to reach room temperature before use.
Total RNA was isolated from 20 mg of vaginal rat tissue in each experimental rat group using the RNeasy Mini kit (Qiagen) according to the manufacturer's specifications. For each total RNA preparation, DNase digestion was performed to remove contaminating genomic DNA. Total RNA samples from each tissue were quantified and evaluated for RNA integrity by the Agilent Bioanalyzer 2100 (Applied Biosystems, Foster City Calif., USA). Following RNA extraction, cDNA was reverse transcribed from ˜500 ng of each total RNA preparation using the qScript cDNA synthesis kit (Quanta Biosciences, Gaithersburg Md., USA). Finally, cDNA samples were used to perform gene expression analysis by qRT-PCR using SYBR Green technology on the RealPlex EP Mastercycler (Eppendorf, Germany) of five genes with known roles in vaginal tissue reconstruction: Collagen IaI (col 1a1), Collagen IIIaI (col 3a1), Collagen VaI (col 5a1), Elastin (eln), Tensin I (tns-1). Glyceraldehyde-3 Phosphate Dehydrogenase (gapdh) was used as a positive control to normalize the expression of each gene. Each qRT-PCR reaction was run in triplicate using Perfecta SYBR Green Supermix (Quanta Biosciences, Gaithersburg Md., USA) in 25 μL reaction volumes using a final concentration of 300 nM forward and reverse primers. For each of the genes analyzed in this study, primers were designed using Primer-BLAST software (NCBI) and synthesized by IDT Technologies (San Diego, Calif.).

[2] = tested on: ovariectomized (OVX) Sprague-Dawley rats; assay: Macroscopic measurements (genital hiatus, vaginal length) after 2 weeks vaginal suppositories; format: in vivo, rat; conditions: vaginal suppositories 2 weeks (20 μM zinc sulfate, 10 nM GW501516, 0.01% estradiol), mean±SD
Method: (§1) Ten to 12-weeks old female ovariectomized (OVX) Sprague-Dawley rats were utilized for the experiments. The animals were acclimatized to the environmental conditions before starting the experiment. The animals were housed individually and were allowed free access to water and rodent food. […] The suppositories were prepared according to the fusion method, using a polypeg suppository base ([…]., USA). […] Using a microwave, the suppository base was melted in a small beaker for 3 min and then transferred and kept into a water bath at a temperature of 55° C. The proper amount of above reagent was added to the liquefied base and meticulously crushed with a smooth rounded-end glass rod for about 20 min to make the solution to be even and clear. A pipette tip was used to suck some amount of solution and push it into a plastic tube with a diameter of 3.5 mm, and the tube was immediately left on the flat surface of an ice bucket. The suppository turned to white in color when it was solid. The moulded suppository was then pushed out of the tube using a round rod. […] After 30 min of cooling at room temperature, the suppositories were stored at 4° C. in a closed chamber until use. They were left to reach room temperature before use. The day after the last treatment the rats were overnight fasted and then sacrificed. Macroscopic measurement (genital hiatus, vaginal length) were taken and the vagina was dissected out carefully to avoid any injury to the vagina. The mid section of the vagina was utilized for histology (H and E stain, Masson's trichrome stain) and immunofluorescence and the rest of the vagina was used for RNA extraction and RT-PCR.

[3] = tested on: ovariectomized (OVX) Sprague-Dawley rats; assay: Vaginal histology and histomorphometry after 2 weeks vaginal suppositories; format: in vivo, rat; conditions: vaginal suppositories 2 weeks
Method: as §1, with “RT-PCR. […] For each animal, a 4 μm-thick paraffin section was cut and stained with haematoxylineosin and with Masson's trichrome stain for morphological examination. […] The cornification was determined by the presence of a keratin layer on the vaginal epithelium. Measurements of the different vaginal layers were performed on the fifth segment of the vagina, which is approximately halfway between the middle region and the portio vaginalis uteri. […] Images were captured with a color digital camera and quantified using ImageJ software was used. […] The thickness of the lamina propria was obtained by deducting the thickness of the epithelium and muscularis from total vaginal thickness.” for “RT-PCR.”

[4] = tested on: rat vaginal Collagen I, Collagen III, Collagen V protein; assay: Immunofluorescence of vaginal collagen protein expression after 2 weeks vaginal suppositories; format: in vivo; conditions: OVX rats, vaginal suppositories 2 weeks, mean±SD
Method: as §1, with “RT-PCR. Samples were incubated with three different antibodies, collagen I, III and anti-actin or collagen I and V and anti-actin. Frozen tissues samples were cut into sections of 6 μm and fixed for 10 min with acetone, followed by five washes of phosphate-buffered saline (PBS). […] After that, sections were incubated with the secondary antibody for one hour in the dark, at room temperature, followed by five washes of PBS. […] Alexa Fluor 405 Goat Anti-Mouse IgG (1:400) (Invitrogen); Cy3-AffiniPure Goat Anti-Mouse IgM (1:400) (Jackson ImmunoResearch Laboratories, West Grove, Pa.); Alexa Fluor 647 (1;200) phalloidin (Invitrogen). […] Four images were obtained per section. Images were capture with an Orca II-ERG 12 bitt CCD camera in a Zeiss Apotome microscope with a 20× objective. The data was analyzed using Matamorph version 7.7.4 software. Results are represented as mean pixel intensity ratios per square area.” for “RT-PCR.”

C[C@]12CC[C@@H]3c4ccc(O)cc4CC[C@H]3[C@@H]1CC[C@@H]2O [Estradiol]
ratio of vaginal Col1a1 to Col3a1 mRNA expression ([1]; placebo 0.78±0.2): 0.70±0.4 relative units
ratio of vaginal Col1a1 to Col5a1 mRNA expression ([1]; placebo 4.3±1.9): 5.3±1.2 relative units
genital hiatus (distance between the external urethral meatus and the mid anus) ([2]; placebo 12.6±1.1): 16.0±1.4 mm
vaginal length ([2]; placebo 14.1±1.1): 18.7±1.5 mm
vaginal epithelial thickness ([3]; mean±SD, placebo 57±18): 140±54 μm
vaginal muscularis thickness ([3]; mean±SD, placebo 121±44): 124±53 μm
vaginal lamina propria thickness ([3]; mean±SD, placebo 179±71): 152±80 μm
vaginal thickness (all three layers of the vagina) ([3]; mean±SD, placebo 358±86): 417±82 μm
vaginal epithelial cornification rate ([3]; placebo 0%): 100%
lamina propria collagen fiber compactness ([3]; scale 0-5 (0=loose, 5=tight), mean±SD, placebo 4.5±0.6): 1.6±0.6 relative units
ratio of vaginal Collagen I to Collagen III protein expression ([4]; placebo 1.16±0.2): 1.08±0.2 relative units
ratio of vaginal Collagen I to Collagen V protein expression ([4]; placebo 1.28±0.3): 1.74±0.5 relative units
